Key:
[1] = biological target: T1, recombinant human pro-heparanase (H60) (Homo sapiens, UniProt Q9Y251); experiment: Pro-heparanase (H60) activation in a cell-based assay; details: inhibition of pro-heparanase activation in CHO cells; NI = no inhibition
T1 construct: Heparanase maturation involves the removal of the signal peptide, transforming the 65 kDa pre-pro-heparanase into a 60 kDa pro-heparanase; made in house
T1 sequence (Q9Y251 36-543): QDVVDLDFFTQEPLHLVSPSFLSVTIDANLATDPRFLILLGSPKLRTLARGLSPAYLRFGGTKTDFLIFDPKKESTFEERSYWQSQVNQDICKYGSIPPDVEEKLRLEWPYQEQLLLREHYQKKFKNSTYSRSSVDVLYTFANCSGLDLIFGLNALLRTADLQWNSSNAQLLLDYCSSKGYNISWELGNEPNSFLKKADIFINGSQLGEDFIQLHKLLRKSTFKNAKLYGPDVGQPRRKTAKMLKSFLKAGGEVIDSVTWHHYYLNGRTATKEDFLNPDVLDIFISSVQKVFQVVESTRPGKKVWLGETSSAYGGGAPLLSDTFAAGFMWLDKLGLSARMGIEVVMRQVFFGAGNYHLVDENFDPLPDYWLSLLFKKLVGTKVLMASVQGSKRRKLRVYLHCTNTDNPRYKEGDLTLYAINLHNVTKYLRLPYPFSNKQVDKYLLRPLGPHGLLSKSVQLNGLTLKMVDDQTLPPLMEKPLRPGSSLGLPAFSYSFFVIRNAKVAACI
Protocol: Pro-heparanase (H60) activation in a cell-based assay: Chinese hamster ovary (CHO) cells were grown in complete F12 medium supplemented with 10% fetal calf serum (FCS). […] The plates were incubated for 24 hours in a 37° C. humidified incubator with 5% CO2. […] The plates were further incubated for additional 4 hours. The pro-heparanase was allowed to internalize by the cells and further processed to generate the active 53 kDa heparanase. At the end of the incubation, the cells were lysed by three consecutive cycles of freezing and thawing in a −80° C. freezer and a 37° C. shaker.
The rigidified compounds described herein were tested for inhibition of pro-heparanase activation in the cell-based assay described above.

[2] = biological target: T2, heparanase (H53) (Homo sapiens, UniProt Q9Y251); experiment: Heparanase (H53) assay (DMB assay); type: biochemical; details: for dual activity: inhibition of pro-heparanase activation (H60) and of heparanase activity (H53): compounds with an acidic group; for IC50: inhibition of heparanase activity, DMB assay, NI = no inhibition
T2 construct: The 45 kDa major subunit and the 8 kDa small subunit hetero-complex to form the 53 kDa active form of heparanase
T2 sequence (Q9Y251 36-109 limits assumed): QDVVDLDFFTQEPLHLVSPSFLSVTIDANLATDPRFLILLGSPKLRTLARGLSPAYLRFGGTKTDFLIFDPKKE
T2 sequence (Q9Y251 158-543 limits assumed): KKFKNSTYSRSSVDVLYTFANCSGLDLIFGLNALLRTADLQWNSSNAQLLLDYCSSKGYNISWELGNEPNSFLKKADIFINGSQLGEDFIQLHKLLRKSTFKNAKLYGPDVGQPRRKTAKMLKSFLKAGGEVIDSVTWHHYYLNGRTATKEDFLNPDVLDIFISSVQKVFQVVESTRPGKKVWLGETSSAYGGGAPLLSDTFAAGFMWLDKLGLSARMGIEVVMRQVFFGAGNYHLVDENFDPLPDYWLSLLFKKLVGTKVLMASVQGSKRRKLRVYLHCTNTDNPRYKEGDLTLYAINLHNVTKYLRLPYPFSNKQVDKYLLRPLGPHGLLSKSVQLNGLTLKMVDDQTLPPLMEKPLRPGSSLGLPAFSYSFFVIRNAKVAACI
Protocol: Heparanase (H53) assay: The rigidified compounds described herein were tested for inhibition of heparanase activity in the DMB assay described in U.S. Pat. No. 6,190,875. IC50 was calculated from inhibition curves of all active compounds.

[3] = biological target: T3, vascular endothelial growth factor (VEGF) (Homo sapiens, UniProt P15692); experiment: ELISA for determination of binding of VEGF to heparin; details: for IC50: inhibition of VEGF binding to heparin, NI = no inhibition; for inhibition of VEGF binding to heparin: inhibition towards both growth factors
T3 sequence (P15692 27-191 isoform P15692-4): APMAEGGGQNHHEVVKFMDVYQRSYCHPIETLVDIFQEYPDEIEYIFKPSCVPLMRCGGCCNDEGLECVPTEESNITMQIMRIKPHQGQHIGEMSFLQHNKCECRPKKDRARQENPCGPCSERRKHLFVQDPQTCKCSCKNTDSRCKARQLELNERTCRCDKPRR
Protocol: Enzyme-linked immunosorbent assay (ELISA) for determination of binding of vascular endothelial growth factor (VEGF) to heparin: 96-well microplates were coated for 2 hours. at 23-25° C. with 5 μg/ml heparin-albumin (Rimon Biotech) and blocked with 1% bovine serum albumin (BSA) in phosphate buffer (PBS) with 0.05% Tween and 0.01% thimerosal for 2 hours. VEGF was added to the plates at a concentration of 10 ng/ml and the plates were thereafter incubated for 45 minutes at 23-25° C. The amount of VEGF bound to heparin was detected using anti-VEGF monoclonal antibody (Sigma Cat. No. V4758) at a concentration of 0.26 μg/ml and secondary antibodies Sheep anti-mouse IgG linked to horseradish peroxidase (1:2000) using 3,3′,5,5′-tetramethylbenzidine (TMB, Pierce Cat. No. 34021) as a substrate for peroxidase. The plates were read at 450 nm with a reference wavelength of 630 nm using a VERSAmax plate reader. […] Percent inhibition was calculated as compared with a control pre-incubated with a solution of 1% DMSO and the results are presented in Table 3 below.

[4] = biological target: β-FGF (Homo sapiens, UniProt P09038); experiment: ELISA for determination of binding of β-FGF to heparin; details: for IC50: inhibition of β-FGF binding to heparin, NI = no inhibition; for inhibition of β-FGF binding to heparin: inhibition towards both growth factors
Protocol: ELISA for determination of binding of β-FGF to heparin: 96-well microplates were coated for 2 hours at 23-25° C. with 5 μg/ml heparin-albumin (Rimon Biotech) and blocked with 1% BSA in PBS, with 0.05% Tween, and 0.01% thimerosal for 2 hours. β-FGF was added to the plates at a concentration of 10 ng/ml and plates were incubated for 45 minutes at 23-25° C. The amount of β-FGF bound to heparin was detected using anti-FGF monoclonal antibody (Sigma Cat. No. F6162) at a concentration of 2.5 ng/ml and secondary antibodies Sheep anti-mouse IgG linked to horseradish peroxidase (1:3000) TMB (Pierce Cat. No. 34021) was used as a substrate for peroxidase. The plates were read at 450 nm with a reference wavelength of 630 nm using a VERSAmax plate reader.

Sequence of β-FGF (P09038 143-288): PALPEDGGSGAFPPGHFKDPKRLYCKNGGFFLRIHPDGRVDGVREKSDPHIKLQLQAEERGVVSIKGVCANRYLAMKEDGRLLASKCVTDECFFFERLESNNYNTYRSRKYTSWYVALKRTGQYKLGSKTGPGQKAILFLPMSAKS

SMILES | IC50 [1] [nM] | dual activity: inhibition of pro-heparanase activation (H60) and of heparanase activity (H53) [2] | IC50 [2] [nM] | IC50 [3] [nM] | IC50 [4] [nM] | inhibition of VEGF binding to heparin [3] | inhibition of β-FGF binding to heparin [4]
O=C(O)CCCN1C(=O)c2cc3oc(-c4ccc(Cl)cc4)cc3n2C1=S [Compound 5, 4-[2-(4-chloro-phenyl)-6-oxo-4-thioxo-6H-1-oxa-3b,5-diaza-cyclopenta[a]pentalen-5-yl]-butyric acid] | 1000 | dual activity | 11800 | 6000 | 2100 | – | –
CC(C)(CC(=O)NCC(=O)O)CN1C(=O)c2cc3oc(-c4ccc(Cl)cc4)cc3n2C1=S [Compound 18, {4-[2-(4-Chloro-phenyl)-6-oxo-4-thioxo-6H-1-oxa-3b,5-diaza-cyclopenta[a]pentalen-5-yl]-3,3-dimethyl-butyrylamino}-acetic acid] | 460 | – | – | 2000 | 1400 | – | –
CC(C)(CC(=O)NCC(=O)OC(C)(C)C)CN1C(=O)c2cc3oc(-c4ccc(Cl)cc4)cc3n2C1=S [Compound 19, {4-[2-(4-Chloro-phenyl)-6-oxo-4-thioxo-6H-1-oxa-3b,5-diaza-cyclopenta[a]pentalen-5-yl]-3,3-dimethyl-butyrylamino}-acetic acid tert-butyl ester] | 420 | – | – | 510 | 500 | sub-micromolar | sub-micromolar
COC(=O)CN(C)C(=O)CC(C)(C)CN1C(=O)c2cc3oc(-c4ccc(Cl)cc4)cc3n2C1=S [Compound 20, ({4-[2-(4-Chloro-phenyl)-6-oxo-4-thioxo-6H-1-oxa-3b,5-diaza-cyclopenta[a]pentalen-5-yl]-3,3-dimethyl-butyryl}-methyl-amino)-acetic acid methyl ester] | 320 | – | – | 420 | 350 | sub-micromolar | sub-micromolar
CN(CC(=O)O)C(=O)CC(C)(C)CN1C(=O)c2cc3oc(-c4ccc(Cl)cc4)cc3n2C1=S [Compound 21, ({4-[2-(4-Chloro-phenyl)-6-oxo-4-thioxo-6H-1-oxa-3b,5-diaza-cyclopenta[a]pentalen-5-yl]-3,3-dimethyl-butyryl}-methyl-amino)-acetic acid] | 1000 | dual activity | 66200 | 7300 | 6500 | – | –
CC(C)(CC(=O)N1CCC[C@@H]1C(=O)O)CN1C(=O)c2cc3oc(-c4ccc(Cl)cc4)cc3n2C1=S [Compound 23, 1-{4-[2-(4-Chloro-phenyl)-6-oxo-4-thioxo-6H-1-oxa-3b,5-diaza-cyclopenta[a]pentalen-5-yl]-3,3-dimethyl-butyryl}-pyrrolidine-2-carboxylic acid] | 820 | dual activity | – | 9300 | 7900 | – | –
CCN(CC)C(=O)CC1(CN2C(=O)c3cc4oc(-c5ccc(Cl)cc5)cc4n3C2=S)CCCCC1 [Compound 24, 2-{1-[2-(4-Chloro-phenyl)-6-oxo-4-thioxo-6H-1-oxa-3b,5-diaza-cyclopenta[a]pentalen-5-ylmethyl]-cyclohexyl}-N,N-diethyl-acetamide] | 1500 | – | – | 90 | 150 | sub-micromolar | sub-micromolar
CCOC(=O)CCCN1C(=O)c2cc3oc(-c4cccc(C(F)(F)F)c4)cc3n2C1=S [Compound 25, ethyl 4-[6-oxo-4-thioxo-2-(3-trifluoromethyl-phenyl)-6H-1-oxa-3b,5-diaza-cyclopenta[a]pentalen-5-yl]-butyric acid ethyl ester] | 2700 | – | – | 140 | 120 | – | –
O=C(O)CCCN1C(=O)c2cc3oc(-c4cccc(C(F)(F)F)c4)cc3n2C1=S [Compound 26] | 780 | – | 10200 | 4800 | 1700 | – | –
COCCCN1C(=O)c2cc3oc(-c4ccc(Cl)cc4)cc3n2C1=S [Compound 28, 2-(4-Chloro-phenyl)-5-(3-methoxy-propyl)-4-thioxo-4,5-dihydro-1-oxa-3b,5-diaza-cyclopenta[a]pentalen-6-one] | 6600 | – | – | 170 | 20 | sub-micromolar | sub-micromolar
Cc1c(N2C(=O)c3cc4oc(-c5ccc(Cl)cc5)cc4n3C2=S)c(=O)n(-c2ccccc2)n1C [Compound 29, 2-(4-chloro-phenyl)-5-(1,5-dimethyl-3-oxo-2-phenyl-2,3-dihydro-1H-pyrazol-4-yl)-4-thioxo-4,5-dihydro-1-oxa-3b,5-diaza-cyclopenta[a]pentalen-6-one] | 370 | – | – | 480 | 810 | sub-micromolar | sub-micromolar
CCOC(=O)CCCN1C(=O)c2cc3sc(-c4ccc([N+](=O)[O-])cc4)cc3n2C1=S [Compound 31, 4-[2-(4-nitro-phenyl)-6-oxo-4-thioxo-6H-1-thia-3b,5-diaza-cyclopenta[a]pentalen-5-yl]-butyric acid ethyl ester] | 560 | – | 74000 | 70 | 280 | sub-micromolar | sub-micromolar
O=C(O)CCCN1C(=O)c2cc3sc(-c4ccc([N+](=O)[O-])cc4)cc3n2C1=S [Compound 32, 4-[2-(4-Nitro-phenyl)-6-oxo-4-thioxo-6H-1-thia-3b,5-diaza-cyclopenta[a]pentalen-5-yl]-butyric acid] | 700 | – | 27000 | – | – | – | –

— patent US7795255B2, “Rigidified compounds for modulating heparanase activity” (InSight Biopharmaceuticals Ltd., priority 2005, dated 2010)
